Source: patent US20220323406A1, “METHODS AND COMPOSITIONS FOR DIFFERENTIATING STEM CELLS” (Massachusetts Institute of Technology, priority 2019, published 2022)
Entries after “also recorded” stand apart in the source; their conditions may differ.

Legend:
[1] = Roberts et al, 1986; cited from earlier work
[2] = tested on: lysozyme (LYZ) in intestinal organoids; assay: Western blotting of lysozyme in 3D-cultured intestinal organoids; format: cell-based, mouse; conditions: ENR+CV, ENR+CD or ENR, 6 days
Source text: Western blotting. ISC-enriched organoids cultured in 3D Matrigel with ENRCV media were passaged to 24-well plate in 3D Matrigel with ENRCV. At day zero, media were replaced to ENR or ENRCD with or without indicated compounds, and media were replaced every other day. At day six, cells were harvested from Matrigel by mechanical disruption and suspended in basal media. Cell pellets were lysed with Pierce® IP lysis buffer (ThermoFisher, 87787) containing Halt™ Protease Inhibitor Cocktail, EDTA-Free (ThermoFisher, 87785) after 3-minute centrifuge at 300×g at 4° C. Cell extracts were resolved by NuPAGE® SDS-PAGE Gel system (ThermoFisher) and electroblotted onto polyvinylidene difluoride membranes using Criterion™ Blotter (Biorad). The membranes were blocked with 2% Blotting-Grade Blocker (Biorad, 1706404) in TBS-T (50 mM Tris-HCl, 150 mM NaCl, and 0.1% Tween 20, pH 8.0) and then probed with appropriate antibodies. Detection was performed using ECL Select™ Western Blotting Detection Reagent (Amersham, 45-000-999) and ImageQuant LAS4000 (GE Healthcare).
Western blotting. Organoid-containing gel was homogenized in basal medium and centrifuged at 300 rcf for 3 min. Organoid pellet was lysed with ice-cold Pierce IP Lysis Buffer (Thermo Fisher Scientific, #87787) containing Halt Protease Inhibitor Cocktail, EDTA-Free (Thermo Fisher Scientific, #87785) and incubated on ice for 20 min. The lysate was centrifuged at 17,000 rcf for 10 min, and the supernatant was combined with NuPAGE LDS Sample Buffer (Thermo Fisher Scientific, NP0007). Protein concentration was determined by Pierce 660 nm Protein Assay (Thermo Fisher Scientific, #22660) and normalized to the lowest concentration among each sample set. […] Chemiluminescent signals were detected by LAS4000 (GE Healthcare) using Amersham ECL Select Western Blotting Detection Reagent (GE Healthcare, #45-000-999), and total protein signals were obtained by Odyssey Imaging System (LI-COR Biosciences) using REVERT Total Protein Stain Kit (LI-COR Biosciences, #926-11010).

[3] = Newlands et al, 1996; cited from earlier work
[4] = tested on: Paneth cells in ENR+CD organoids; assay: Flow cytometry of 3D-cultured intestinal organoids, Paneth cells (lysozyme-positive, CD24-positive); format: cell-based, mouse; conditions: 160 nM KPT-8602 or 2 ng/mL Leptomycin B, ENR+CD 6 days
Source text: Flow cytometry analysis (3D culture). ISC-enriched organoids cultured in 3D Matrigel with ENRCV media were passaged to 24-well plate in 3D Matrigel with ENRCV. At day zero, media were replaced to ENRCD with or without indicated compounds, and media were replaced every other day. At day six, cells were washed with basal media, and then harvested from Matrigel by mechanical disruption in TrypLE Express (ThermoFisher, 12605010) to remove Matrigel and dissociate organoids to single cells. After vigorous pipetting and incubation at 37° C. for 20 min, dissociated organoids were strained through a 35 μm cell strainer into a tube (Falcon, 352235). […] Cell pellets were resuspended in FACS buffer (2% FBS in PBS), and then transferred to an ultra low-bind 96-well plate (Corning, 7007). Cells were stained with Zombie-violet viability dye (BioLegend, 423107) at 100× for viability staining and/or antibody staining solution. FITC-conjugated antibody for lysozyme (Dako, F0372) and APC-conjugated antibody for CD24 (BioLegend, 138505) were used at 100× dilution. Flow cytometry was performed using an LSR Fortessa (BD; Koch Institute Flow Cytometry Core at MIT). The data were analyzed using FlowJo v10 software.
The results of primary and secondary screening reflect a mixture of potential effects arising from small molecule treatment which may result in increases in total LYZ secretion. This includes contributions from enhanced Paneth cell differentiation, altered Paneth cell activity and changes in total cell number concurrent with differentiation. To better inform how the 6 compounds identified in the screen increased total secreted LYZ, and to isolate only those which enhance Paneth differentiation robustly, Applicants next utilized flow cytometry to measure the changes in Paneth cell representation within the treated organoids. […] Single live cells were selected by several gating strategies and Paneth cells were identified as lysozyme-high, CD24-mid, side scatter-high (SSC-high) (FIG. 27E). […] To evaluate whether the culture media supplements C and D may alter the effects of the 6 hits, Applicants also performed lysozyme assay in the canonical ENR culture condition in 3-D (because Paneth cells exist in an immature state within ENR, Applicants were unable to robustly quantify Paneth cell number via flow cytometry).
Flow cytometry. ISC-enriched organoids in 3D Matrigel culture were passaged to a 48-well plate and induced differentiation for 6 days by ENR+CD media containing DMSO or each drug indicated in the figures. DMSO- or drug-containing media were changed every other day. On day 6, cells were washed twice with basal media, then harvested from Matrigel by the mechanical disruption in TrypLE Express (Thermo, #12605010) to remove Matrigel and dissociate organoids to single cells. After vigorous pipetting and incubation at 37° C. for 15 min, the cell solution was diluted twice with basal media and centrifuged at 300 ref for 3 min. The cell pellet was resuspended in FACS buffer (PBS containing 2% FBS) and replaced into a 96-well Clear Round Bottom Ultra-Low Attachment Microplate (Corning, #7007). The cell solution was centrifuged again at 300 rcf for 3 min at 4° C. to pellet the cells. Cells were stained with Zombie-violet dye (BioLegend, #423113) at 100× for viability staining for 20 min at RT in the dark. After centrifugation for 3 min at 300 rcf, cells were fixed in fixation buffer (FACS buffer containing 1% formaldehyde (Thermo, #28906)) for 15 min on ice in the dark. Cells were centrifuged again for 3 min at 300 rcf and blocked with staining buffer (FACS buffer containing 0.5% Tween20 (Sigma, P2287)) for 15 min at RT in the dark. Pelleted cells by the centrifugation for 3 min at 300 rcf are stained with FITC-conjugated anti-lysozyme antibody (Dako, F0372) and APC-conjugated anti-CD24 antibody (Biolegend, #138505) at 100× for 45 min at RT in the dark.

intestinal organoids = assay: Population RNA-sequencing of treated organoids; format: cell-based, mouse; conditions: ENR+CV, ENR+CD or ENR
Protocol: Population RNA-sequencing. Population RNA-seq was performed using a derivative of the Smart-Seq2 protocol for single cells. In brief, organoid media was aspirated and RLT+BME (Qiagen) was added to each well, and plate shaken for 30 minutes to fully lyse. Lysate was aliquoted into 4 identical fractions and stored at −80° C. until reverse transcription. RNA lysate was thawed and cleaned with a 2.2×SPRI ratio using Agencourt RNAClean XP beads (Beckman Coulter, A63987). RNA-seq was performed on a bulk population of sorted basal cells using Smart-Seq2 chemistry, starting with a 2.2×SPRI ratio cleanup. After oligo-dT priming, Maxima H Minus Reverse Transcriptase (ThermoFisher EP0753) was used to synthesize cDNA with an elongation step at 52° C. before PCR amplification (15 cycles for tissue, 18 cycles for sorted basal cells) using KAPA HiFi PCR Mastermix (Kapa Biosystems KK2602). Sequencing libraries were prepared using the Nextera XT DNA tagmentation kit (Illumina FC-131-1096) with 250 pg input for each sample. Libraries were pooled post-Nextera and cleaned using Agencourt AMPure SPRI beads with successive 0.7× and 0.8× ratio SPRIs and sequenced with an Illumina 75 Cycle NextSeq500/550v2 kit (Illumina FC-404-2005) with loading density at […], with paired end 35 cycle read structure. Samples were sequenced at an average read depth of 8.44 million reads per sample and a total of 96 samples.
Organoid samples were aligned to the Mm10 genome and transcriptome using STAR and RSEM. […] For module scoring with the in vivo Paneth and enteroendocrine cell-defining genes, Applicants used previously published gene sets and computed per sample module scores through the Seurat package.

ISCs / Paneth cells = conditions: Hayase et al., 2017; cited from earlier work

Row | Molecule | tolerability in animals [1] | LYZ abundance per-mass protein (Western blot) [2] | tolerability in humans [3] | Paneth cell representation / proportion in organoids [4] | Paneth cell representation / proportion in organoids ([4]; listed as leptomycin B) | secretory cell gene set scores (Paneth, goblet, EEC) from bulk transcripts (intestinal organoids) | alpha-defensin secretion and dysbiosis in mice with GvHD (ISCs / Paneth cells)
1 | CCC(=C/[C@H](C)C/C=C/C(C)=C/[C@@H](C)C(=O)[C@@H](C)[C@H](O)[C@@H](C)C/C(C)=C/C(=O)O)/C=C/[C@@H]1OC(=O)C=C[C@@H]1C [Leptomycin B] | poorly tolerated with marked gastrointestinal toxicity | appreciably increase LYZ abundance | poorly tolerated with marked gastrointestinal toxicity | statistically significant increases in Paneth cell representation; also recorded: statistically significant increases in the Paneth cell fraction | increased the proportion of PC |  | 
2 | NC(=O)/C(=C/n1cnc(-c2cc(C(F)(F)F)cc(C(F)(F)F)c2)n1)c1cncnc1 [KPT-8602] |  | appreciably increase LYZ abundance |  | statistically significant increases in Paneth cell representation; also recorded: statistically significant increases in the Paneth cell fraction; also recorded: increased the proportion of PC |  | increase secretory cells (Paneth, goblet, and EEC) | 
3 | R-spondin1: a potent WNT agonist (protein, UniProt Q2MKA7 21-263, looked up) R-spondin-1: SRGIKGKRQRRISAEGSQACAKGCELCSEVNGCLKCSPKLFILLERNDIRQVGVCLPSCPPGYFDARNPDMNKCIKCKIEHCEACFSHNFCTKCKEGLYLHKGRCYPACPEGSSAANGTMECSSPAQCEMSEWSPWGPCSKKQQLCGFRRGSEERTRRVLHAPVGDHAACSDTKETRRCTVRRVPCPEGQKRRKGGQGRRENANRNLARKESKEAGAGSRRRKGQQQQQQQGTVGPLTSAGPA |  |  |  |  |  |  | elevate the secretion of alpha-defensins and resolve dysbiosis seen in mice with GvHD
